Measurements reported in patent publication US12673961B2 (Agios Pharmaceuticals, Inc., priority 2022, dated 2026).

Molecular target: T1, human PAH with the R408W mutation (Homo sapiens, UniProt P00439, R408W)
T1 construct: expressed in transfected cells
T1 sequence (P00439 1-452 R408W): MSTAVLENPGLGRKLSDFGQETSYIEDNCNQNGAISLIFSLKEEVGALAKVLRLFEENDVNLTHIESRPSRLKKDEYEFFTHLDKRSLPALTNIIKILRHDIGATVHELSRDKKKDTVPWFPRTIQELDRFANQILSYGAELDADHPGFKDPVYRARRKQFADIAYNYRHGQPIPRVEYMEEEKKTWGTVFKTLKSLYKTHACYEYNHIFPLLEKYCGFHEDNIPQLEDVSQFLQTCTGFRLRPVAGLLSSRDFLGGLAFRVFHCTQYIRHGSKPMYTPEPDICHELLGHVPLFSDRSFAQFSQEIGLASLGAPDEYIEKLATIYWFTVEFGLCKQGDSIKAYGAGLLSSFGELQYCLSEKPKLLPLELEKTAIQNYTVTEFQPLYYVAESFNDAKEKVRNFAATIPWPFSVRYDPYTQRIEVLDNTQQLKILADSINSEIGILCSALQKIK
Experiment: Cell Based Phenylalanine Flux Assay;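 further: Ten-point dose curve from 2-fold serial dilutions, run in duplicate at 0.5% DMSO final, tracer step used 20 µM sepiapterin and 800 µM labeled phenylalanine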
Settings: A375 cells expressing human R408W PAH; 24 hrs with compound, then sepiapterin and 13C9,15N-Phenylalanine for 4 hours; 13C-Tyrosine by LC-MS; average where tested multiple times; read-out: AC50
Method: Compounds were resuspended in DMSO, and 2-fold serial dilutions were performed to generate a 10-point dose curve. Compounds were added to plated cells in a total volume of 100 μl, and a final DMSO concentration of 0.5%. Each compound was tested in duplicate. Following compound addition, cells were placed in a 5% CO2, 37° C. tissue culture incubator for 24 hrs. […] 20 μM sepiapterin and 800 μM 13C9,15N-Phenylalanine were added. After 4 hours, cell media was removed. An aliquot of 10 μl of cell media was combined with 200 μl of extraction buffer (80% acetonitrile/20% H2O) for each well. Determination of ^13C-Tyrosine concentration was assessed by liquid chromatography mass spectrometry.
Where a compound was tested multiple times, the average value of the tests is reported.

AC50	Structure (SMILES)
> 5 µM	CC1(c2nnc(N3CCc4[nH]cnc4[C@@H]3c3cc4c(C5CC5)cccn4n3)o2)CC1 [Example 2226, (R)-2-(4-(4-cyclopropylpyrazolo [1,5-a]pyridin-2-yl)-1,4,6,7-tetrahydro-5H-imidazo [4,5-c]pyridin-5-yl)-5-(1-methylcyclopropyl)-1,3,4-oxadiazole]
0.5 to 1 µM	CC1(c2nnc(N3CCc4[nH]cnc4[C@H]3c3cc4c(C5CC5)cccn4n3)o2)CC1 [Example 2227, (S)-2-(4-(4-cyclopropylpyrazolo [1,5-a]pyridin-2-yl)-1,4,6,7-tetrahydro-5H-imidazo [4,5-c]pyridin-5-yl)-5-(1-methylcyclopropyl)-1,3,4-oxadiazole]
> 5 µM	CC(C)c1cccn2nc([C@H]3c4nc[nH]c4CCN3c3nnc(C4(C)CC4)o3)cc12 [Example 2228, (R)-2-(4-(4-isopropylpyrazolo [1,5-a]pyridin-2-yl)-1,4,6,7-tetrahydro-5H-imidazo [4,5-c]pyridin-5-yl)-5-(1-methylcyclopropyl)-1,3,4-oxadiazole]
< 0.5 µM	CC(C)c1cccn2nc([C@@H]3c4nc[nH]c4CCN3c3nnc(C4(C)CC4)o3)cc12 [Example 2229, (S)-2-(4-(4-isopropylpyrazolo [1,5-a]pyridin-2-yl)-1,4,6,7-tetrahydro-5H-imidazo [4,5-c]pyridin-5-yl)-5-(1-methylcyclopropyl)-1,3,4-oxadiazole]
> 5 µM	CC(C)c1cccn2nc([C@H]3c4nc[nH]c4CCN3c3nnc(C(C)(F)F)o3)cc12 [Example 2230, (R)-2-(1,1-difluoroethyl)-5-(4-(4-isopropylpyrazolo[1,5-a]pyridin-2-yl)-1,4,6,7-tetrahydro-5H-imidazo[4,5-c]pyridin-5-yl)-1,3,4-oxadiazole]
> 5 µM	CC(F)(F)c1nnc(N2CCc3[nH]cnc3[C@@H]2c2cc3c(Cl)cccn3n2)o1 [Example 2232, (R)-2-(4-(4-chloropyrazolo [1,5-a]pyridin-2-yl)-1,4,6,7-tetrahydro-5H-imidazo [4,5-c]pyridin-5-yl)-5-(1,1-difluoroethyl)-1,3,4-oxadiazole]
< 0.5 µM	CC(F)(F)c1nnc(N2CCc3[nH]cnc3[C@H]2c2cc3c(Cl)cccn3n2)o1 [Example 2233, (S)-2-(4-(4-chloropyrazolo [1,5-a]pyridin-2-yl)-1,4,6,7-tetrahydro-5H-imidazo [4,5-c]pyridin-5-yl)-5-(1,1-difluoroethyl)-1,3,4-oxadiazole]
> 5 µM	Cc1ncccc1-c1nnc(N2CCc3[nH]cnc3[C@@H]2c2cc3c(Cl)cccn3n2)o1 [Example 2237, (R)-2-(4-(4-chloropyrazolo [1,5-a]pyridin-2-yl)-1,4,6,7-tetrahydro-5H-imidazo [4,5-c]pyridin-5-yl)-5-(2-methylpyridin-3-yl)-1,3,4-oxadiazole]
< 0.5 µM	FC(F)c1nnc(N2CCc3[nH]cnc3[C@H]2c2cc3c(OC(F)(F)F)cccn3n2)o1 [Example 2251, (S)-2-(difluoromethyl)-5-(4-(4-(trifluoromethoxy)pyrazolo [1,5-a]pyridin-2-yl)-1,4,6,7-tetrahydro-5H-imidazo [4,5-c]pyridin-5-yl)-1,3,4-oxadiazole]
> 5 µM	CC1(c2nnc(N3CCc4[nH]cnc4[C@@H]3c3cc4c(Cl)cccn4n3)o2)CC1 [Example 2258, (R)-2-(4-(4-chloropyrazolo [1,5-a]pyridin-2-yl)-1,4,6,7-tetrahydro-5H-imidazo [4,5-c]pyridin-5-yl)-5-(1-methylcyclopropyl)-1,3,4-oxadiazole]

The next lines start with the compound.

Structure (SMILES)	AC50
Cc1ncccc1-c1nnc(N2CCc3[nH]cnc3[C@H]2c2cc3c(F)cccn3n2)o1 [Example 2212, (S)-2-(4-(4-fluoropyrazolo [1,5-a]pyridin-2-yl)-1,4,6,7-tetrahydro-5H-imidazo [4,5-c]pyridin-5-yl)-5-(2-methylpyridin-3-yl)-1,3,4-oxadiazole]	< 0.5 µM
Cc1ncccc1-c1nnc(N2CCc3[nH]cnc3[C@@H]2c2cc3c(F)cccn3n2)o1 [Example 2213, (R)-2-(4-(4-fluoropyrazolo [1,5-a]pyridin-2-yl)-1,4,6,7-tetrahydro-5H-imidazo [4,5-c]pyridin-5-yl)-5-(2-methylpyridin-3-yl)-1,3,4-oxadiazole]	> 5 µM
Cc1cccn2nc([C@@H]3c4nc[nH]c4CCN3C(=O)c3nc(C(F)F)nn3C)cc12 [Example 2214, (S)-(3-(difluoromethyl)-1-methyl-1H-1,2,4-triazol-5-yl)(4-(4-methylpyrazolo[1,5-a]pyridin-2-yl)-6,7-dihydro-1H-imidazo[4,5-c]pyridin-5(4H)-yl)methanone]	< 0.5 µM
CC(C)(O)c1ncc(C(=O)N2CCc3[nH]cnc3[C@H]2c2cc3c(Cl)cccn3n2)o1 [Example 2216]	0.5 to 1 µM
Cc1nnc(C(=O)N2CCc3[nH]cnc3[C@H]2c2cc3c(OC(F)(F)F)cccn3n2)o1 [Example 2218, (S)-(5-methyl-1,3,4-oxadiazol-2-yl)(4-(4-(trifluoromethoxy)pyrazolo [1,5-a]pyridin-2-yl)-6,7-dihydro-1H-imidazo[4,5-c]pyridin-5(4H)-yl)methanone]	1 to 5 µM
Cc1nnc(C(=O)N2CCc3[nH]cnc3[C@@H]2c2cc3c(OC(F)(F)F)cccn3n2)o1 [Example 2219, (R)-(5-methyl-1,3,4-oxadiazol-2-yl)(4-(4-(trifluoromethoxy)pyrazolo [1,5-a]pyridin-2-yl)-6,7-dihydro-1H-imidazo[4,5-c]pyridin-5(4H)-yl)methanone]	> 5 µM
O=C(c1cnc(-c2cnccn2)o1)N1CCc2[nH]cnc2[C@H]1c1cc2c(C(F)F)cccn2n1 [Example 2242, (S)-(4-(4-(difluoromethyl)pyrazolo[1,5-a]pyridin-2-yl)-1,4,6,7-tetrahydro-5H-imidazo [4,5-c]pyridin-5-yl)(2-(pyrazin-2-yl)oxazol-5-yl) methanone]	0.5 to 1 µM
O=C(c1cnc(-c2cnccn2)o1)N1CCc2[nH]cnc2[C@@H]1c1cc2c(C(F)F)cccn2n1 [Example 2243]	> 5 µM
FC(F)(F)Oc1cccn2nc([C@H]3c4nc[nH]c4CCN3c3nnc(C(F)(F)F)o3)cc12 [Example 2252, (R)-2-(4-(4-(trifluoromethoxy)pyrazolo[1,5-a]pyridin-2-yl)-1,4,6,7-tetrahydro-5H-imidazo[4,5-c]pyridin-5-yl)-5-(trifluoromethyl)-1,3,4-oxadiazole]	0.5 to 1 µM
CC(C)c1cccn2nc([C@@H]3c4nc[nH]c4CCN3c3nnc(-c4cccnc4)o3)cc12 [Example 2261, (S)-2-(4-(4-isopropylpyrazolo [1,5-a]pyridin-2-yl)-1,4,6,7-tetrahydro-5H-imidazo [4,5-c]pyridin-5-yl)-5-(pyridin-3-yl)-1,3,4-oxadiazole]	0.5 to 1 µM
Clc1cccn2nc([C@@H]3c4nc[nH]c4CCN3c3nnc(-c4cccnc4)o3)cc12 [Example 2262, (S)-2-(4-(4-chloropyrazolo [1,5-a]pyridin-2-yl)-1,4,6,7-tetrahydro-5H-imidazo[4,5-c]pyridin-5-yl)-5-(pyridin-3-yl)-1,3,4-oxadiazole]	0.5 to 1 µM
Clc1cccn2nc([C@H]3c4nc[nH]c4CCN3c3nnc(-c4cccnc4)o3)cc12 [Example 2263, (R)-2-(4-(4-chloropyrazolo [1,5-a]pyridin-2-yl)-1,4,6,7-tetrahydro-5H-imidazo[4,5-c]pyridin-5-yl)-5-(pyridin-3-yl)-1,3,4-oxadiazole]	> 5 µM
